Laboratory results as given in the METLIN SMRT retention time set (Domingo-Almenara et al. 2019).

Experiment: gradient 5% acetonitrile 3 min, to 50% in 2 min, to 85% in 15 min, held 3 min, 100 µL/min
Details: column: Zorbax Extend-C18 2.1 x 50 mm; eluents: water / acetonitrile, 0.1% formic acid
Procedure, shortened: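 Values are retention times taken from adduct peaks that software picked and an analyst inspected. The pure standards were run as mixtures of ~100 molecules on HPLC linked to a quadrupole time-of-flight mass spectrometer, in positive and negative ionization mode. A Zorbax Extend-C18 column (2.1 × 50 mm, 1.8 μm) was used at 100 μL/min with water and acetonitrile, each including 0.1% formic acid.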

| Compound | RP-LC retention time [s] |
| --- | --- |
| FC(F)(F)c1cccc(-c2noc(Cc3nnc(-c4ccccc4)o3)n2)c1 | 1080 |
| Cn1nnnc1C1CCCN(S(=O)(=O)Cc2ccccc2)C1 (centres undefined) | 751 |
| Cc1c(Cl)cccc1NC(=O)N(C)CC1CCOC1 (centres undefined) | 720 |
| COC(C)C(O)(C(=O)OCC1=CCN2CC[C@H](O)[C@@H]12)C(C)C (some centres undefined) | 644 |
| Cc1n[nH]c(C)c1CCC(=O)N1CCCn2ccnc2C1C1CCCC1 (centres undefined) | 559 |
| O=C(NCCn1nnc2cc(C(=O)N3CCCCC3)ccc21)NC1CCCCC1 | 707 |
| CCOCCCNC(=O)c1csc(-c2ccnc(N3CCCC3)c2)n1 | 592 |
| CNC(=O)[C@@H]1CN(C(=O)c2ccoc2C)C[C@H]1c1nc(C)no1 | 612 |
| CCOC(=O)c1noc2nc(C)nc(N(C)c3cc(C)ccc3OC)c12 | 1040 |
| Cc1noc(C2(NC(=O)c3ccc4c(c3)OCO4)CCCCC2)n1 | 758 |
| CC(=O)N1CCN(Cc2nc(-c3ccc(N4CCCC(C)C4)nc3)no2)CC1 (centres undefined) | 669 |
| O=C(c1cnn2c(C(F)(F)F)cc(-c3ccccc3)nc12)N1CCN(c2ccccn2)CC1 | 687 |
| CC(C)N1CCn2cc(S(=O)(=O)Nc3cccc(F)c3)cc2C1=O | 751 |
| NC(=O)C1CCN(C(=O)Cn2c(=O)n(C3CCCCC3)c(=O)c3cc(Br)ccc32)CC1 | 771 |
| CC1=NOC(C)(CNC(=O)NC2CCCC2)C1 (centres undefined) | 633 |
| CCCn1ncc(N2CCC(C(=O)N3CCCCC3)CC2)cc1=O | 559 |
| Cc1noc(C)c1CCNC(=O)C(C)n1c2ccccc2c2cnn(C)c(=O)c21 (centres undefined) | 741 |
| COc1ccc(-c2nnc(N3CCC(C(=O)N4CCOCC4)CC3)o2)cc1 | 664 |
| CCN1CCCn2cc(S(=O)(=O)Nc3ccccc3C)cc2C1=O | 720 |
| CON=C(C(=O)N[C@@H]1C(=O)N2C(C(=O)O)=C(CSc3nnnn3C)CS[C@H]12)c1csc(N)n1 | 621 |
| O=S(=O)(NCc1ccccc1Cl)c1c[nH]c2ncccc12 | 742 |
| CO[C@H]1C(=O)N(C(C)C)[C@H]1C1CCN(S(=O)(=O)Cc2ccccc2)CC1 | 829 |
| CC(C)c1cnc2c(c1SCc1ccccn1)c(=O)n(C)c(=O)n2C | 737 |

| Compound | RP-LC retention time [s] |
| --- | --- |
| CCn1cnc2cc(CNC(=O)c3ccsc3)ccc21 | 572 |
| Cc1ccccc1Cn1c(CN2CCC(C(=O)N3CCCCCC3)CC2)cc2ccccc21 | 838 |
| O=C(Cn1cc(S(=O)(=O)N2CCCCCC2)ccc1=O)N1CCCc2ccccc21 | 900 |
| CCCCNC(=O)c1cn(-c2cc(-c3nc(C)no3)ccn2)cn1 | 779 |
| COc1ccc(CNC(=O)NCC2(CO)CC2)cc1OC | 590 |
| Cc1ccccc1CC(=O)NC(C)C(=O)Nc1nc2ccccc2[nH]1 (centres undefined) | 654 |
| Cc1ccc(CNC(=O)C2CCN(c3nc(C4CCC4)nc4csc(C)c34)CC2)cc1C | 808 |
| O=C(NC1CCCCC1)[C@@H]1C[C@@H](O)CN1C1CCN(C(=O)c2ccc(Cn3ccnc3)o2)CC1 | 551 |
| Cc1ccc(-c2nc(-c3ccc4c(c3)ncn4CCN3CCCC3)no2)s1 | 639 |
| O=C(CCc1cc(Cl)no1)N1CCC(c2nc(C3CCOCC3)no2)C1 (centres undefined) | 701 |
| Cc1nn2c(=O)cc(CSc3nnc(-c4ccc5c(c4)OCO5)o3)nc2s1 | 713 |
| CCCn1cc(C(=O)N2CCC(N3CCCCC3)CC2)c2cccnc21 | 567 |
| CCn1ccc(C(=O)N2CCCN(C3=NS(=O)(=O)C(c4ccc(F)cc4)=C3C)CC2)n1 | 759 |
| CCCCCn1c(=O)c2ccccc2n(Cc2nc(-c3ccc(Cl)cc3)no2)c1=O | 1340 |
| Cc1noc(C)c1CN1CCN(C(=O)c2nc3ccccc3s2)CC1 | 574 |
| Cc1noc(-c2cccc(OC3CN(C(=O)NC4CCCC4)C3)c2)n1 | 850 |
| CC(C)NC(=O)C(=O)NCC(c1ccc2c(c1)CCCN2C)N1CCCCC1 (centres undefined) | 671 |
| CCN(CC)C(=O)c1ccc2c(c1)N(CC(=O)NCCN1CCN(C)CC1)C(=O)CO2 | 567 |
| CCOC(=O)C1CCN(C(=O)Cn2nc3cc(-c4ccccc4)nc(C)n3c2=O)CC1 | 858 |
| CCCNC(=O)c1csc(C(=O)NCC)n1 | 670 |
| Cc1cnc(C(=O)N[C@@H]2CCC[C@@H]2C(=O)NC2CCCCCC2)cn1 | 735 |
| COc1ccc(-c2csc3nc[nH]c(=O)c23)cc1 | 671 |
| COc1ccc(-c2noc(Cn3ccnc3)n2)cc1OC | 586 |

The next lines start with the values.

| RP-LC retention time [s] | Compound |
| --- | --- |
| 620 | CC(=O)N1c2ccc(S(=O)(=O)N3CCC(c4ccncc4)CC3)cc2CC1C (centres undefined) |
| 808 | CC(C)NC(=O)c1ccc2c(c1)CCN2C(=O)C1CC1 |
| 1060 | COc1ccc(CC(=O)N2CCc3cc(-c4csc(C)n4)ccc32)cc1 |
| 681 | CCc1ccc(C(=O)N2CCN(c3nnc4ccccn34)CC2)cc1 |
| 1020 | COc1ccccc1N1CCN(c2cc(SCC(=O)Nc3cccc(SC)c3)ncn2)CC1 |
| 611 | COc1cc(CN2CCCCCC2c2cccs2)ccc1OCC(N)=O (centres undefined) |
| 845 | O=C(Nc1ccc2c(c1)OCCO2)c1cccc(-c2cnc(N3CCCC3)nc2)c1 |
| 1040 | COC(=O)c1cnc(N2CCN(c3cccc(C)c3)C(C)C2)c2ccccc12 (centres undefined) |
| 708 | CNC(=O)C1CCN(Cc2cc3ccccc3n2Cc2ccc(Cl)cc2)CC1 |
| 797 | CCOc1ccc(NC(=O)N2CCC(n3cnc4cc(F)ccc4c3=O)CC2)cc1 |
| 605 | O=C(NCc1ccccc1F)c1ccc2c(c1)CNCCO2 |
| 1270 | Cc1ccc(NC(=O)c2cc(C(C)C)n3nccc3n2)c(F)c1 |
| 893 | COc1ccc(Oc2cc3c(cc2NC(=O)Nc2ccccc2)n(C)c(=O)n3C)cc1 |
| 603 | CN1CCN(CCNC(=O)c2nc3ccccn3c2-c2ccc(Cl)cc2)CC1 |
| 1190 | Cn1nccc1-c1cccc(-c2noc(-c3cc(F)ccc3Cl)n2)c1 |
| 812 | CCOC(=O)c1cccc(NC(=O)C2CCN(C(=O)C3Sc4ccccc4NC3=O)CC2)c1 (centres undefined) |
| 1050 | CCN1C(=O)COc2ccc(-c3nc(NC(=O)c4ccc(F)cc4)sc3C)cc21 |
| 822 | COc1cccc(CNC(=O)c2nnc(-c3ccc(S(=O)(=O)N4CCOCC4)cc3)o2)c1 |
| 689 | Cc1cc2c(=O)n(CC(=O)Nc3ccc(F)cc3)c3cccnc3n2n1 |
| 743 | O=C(Nc1ccc(F)cc1)c1csc(-c2ccc(N3CCCC3)nc2)n1 |
| 952 | CCN1C(=O)COc2ccc(-c3csc(NC(=O)c4ccccc4)n3)cc21 |
| 627 | O=C(Nc1ccc(F)c(Cl)c1)N1CCN(CCn2c(-c3ccncc3)nc3cccnc32)CC1 |

| RP-LC retention time [s] | Compound |
| --- | --- |
| 822 | COc1ccc(CCC(=O)Nc2cnn(-c3ncc(N4CCCC4)cn3)c2)cc1 |
| 959 | O=C(Cc1csc2nc(-c3cccc(Br)c3)cn12)Nc1ccc(F)cc1 |
| 1160 | Cc1ccc(C(C)C)cc1NC(=O)Nc1ccc([N+](=O)[O-])cc1 |
| 816 | Cc1ccc(CNC(=O)C2(C)Cn3cnc(C(=O)NCCc4ccccc4)c3C(=O)N2C2CC2)cc1 (centres undefined) |
| 684 | CN(C)c1cccc(C(=O)NC2CCN(c3cc(-c4ccc(F)cc4)[nH]n3)C2)c1 (centres undefined) |
| 973 | CC(C)n1c(=O)sc2cc(S(=O)(=O)N3CCC(C(=O)Nc4ccc(F)cc4)CC3)ccc21 |
| 1030 | Cc1ccc(C)c(NC(=O)c2cc(C)n3nccc3n2)c1 |
| 669 | O=C(CC1CCN(C(=O)c2cc3cc(Cl)ccc3[nH]2)CC1)N1CCN(c2ccccn2)CC1 |
| 850 | CCOc1ccc(CC(=O)N2CCCn3nc(-c4cccs4)cc3C2)cc1 |
| 1410 | COc1cccc(N2CCN(c3ccc(-c4nc(-c5ccccc5)no4)cn3)CC2)c1 |
| 861 | O=C(NCc1ccccc1C(F)(F)F)C1CCCN(c2ncnc3c2oc2ccccc23)C1 (centres undefined) |
| 958 | COc1ccc(Cl)cc1C(=O)Nc1ccc2c(c1)CN(C(=O)c1cccs1)CC2 |
| 654 | CN(C)C(=O)c1n[nH]c2c1CN(C(=O)c1cccc(Br)c1)CC2 |
| 748 | COc1nn(C)cc1C(=O)Nc1ccc(C(=O)Nc2cccc(-c3csc(C)n3)c2)cc1 |
| 626 | CCCN1CCN(C(=O)CC(c2cc(OC)c(OC)c(OC)c2)N2Cc3ccccc3C2=O)CC1 (centres undefined) |
| 831 | COc1ccc(C2Cn3cnc(C(=O)N4CCC(C(=O)NCCC5=CCCCC5)CC4)c3CO2)cc1 (centres undefined) |
| 963 | COc1ccc(N2CC(c3nc(-c4ccc(C(F)(F)F)cc4)no3)CC2=O)cc1OC (centres undefined) |
| 941 | O=C(NCCS(=O)(=O)N1CCN(c2cccc(Cl)c2)CC1)c1cc2ccccc2o1 |
| 742 | O=C1CCCN1c1ccc(Cn2nc3ccc(-c4ccc(Cl)cc4)nn3c2=O)cc1 |
| 766 | Cc1ccn2c(Nc3ccccc3C)c(-c3c(F)cccc3Cl)nc2c1 |
| 788 | COc1ccc(CCNC(=O)Nc2nnc(-c3ccc(F)cc3F)o2)cc1 |
